According to ChEMBL document CHEMBL3860033, “Recent advances of cytotoxic chalconoids targeting tubulin polymerization: Synthesis and biological activity” (Eur J Med Chem, 2016):

Legend:
Ovis aries = species on record: Ovis aries; assay: Binding affinity to lamb brain tubulin using ultracentrifuge by absorbance assay
[1] = Cytotoxicity against human SW620 cells assessed as decrease in cell viability after 24 to 48 hrs by CCK8 assay; assay type: functional, cell-based; settings: SW-620
[2] = Cytotoxicity against human NCI60 cells after 48 hrs by SRB assay; assay type: functional; settings: NCI60, 48 h
[3] = Cytotoxicity against human A549 cells assessed as decrease in cell viability after 72 hrs by MTT assay; assay type: functional, cell-based; settings: A549, 72 h
[4] = Cytotoxicity against human HCT116 cells assessed as decrease in cell viability after 72 hrs by MTT assay; assay type: functional, cell-based; settings: HCT-116, 72 h
[5] = Cytotoxicity against human HeLa cells assessed as decrease in cell viability after 72 hrs by MTT assay; assay type: functional, cell-based
[6] = Cytotoxicity against human K562 cells assessed as growth inhibition after 5 days by MTT assay; assay type: functional, cell-based; settings: K562, 120 h
[7] = Cytotoxicity against human Capan1 cells assessed as decrease in cell viability after 24 to 48 hrs by CCK8 assay; assay type: functional, cell-based; settings: CAPAN-1
[8] = Inhibition of porcine brain tubulin polymerization by spectrophotometric method; design: species or system Sus scrofa
[9] = Displacement of [3H]-colchicine from porcine tubulin; design: species or system Sus scrofa

COc1cc(OC)c(C(=O)/C=C/c2cn(C)c3ccccc23)c(OC)c1
Kapp (Ovis aries): 2 ×10⁵ /M

COc1cc(OC)c(/C=C/C(=O)c2c(O)ccc3ccccc23)c(OC)c1
IC50 [1]: 14.5 µM

COc1cc(C(=O)C2OC2c2cc(OC)c(OC)c(OC)c2)cc(OC)c1OC (stereo not given)
GI50 [2]: 14.1 µM

CCOc1cc2c(cc1C(=O)/C=C/c1ccc(OC)c(O)c1)OCS2
IC50 [3]: 0.001 to 0.009 µM | IC50 [4]: 0.001 to 0.009 µM | IC50 [5]: 0.001 to 0.009 µM

COc1ccc(C=C(C)C(=O)c2cc(OC)c(OC)c(OC)c2)cc1O
IC50 [6]: 0.0002 µM

COc1ccc(C(=O)/C=C/c2cccc3ccccc23)c(O)c1
IC50 [7]: 5.2 µM

COc1ccc(/C=C2\Oc3c(cc(OC)c(OC)c3OC)C2=O)cc1O
IC50 [8]: 22 µM | IC50 [9]: 60 µM
